Measurements from US20160318938A1, “CRYSTALS (2) OF PYRAZINO[2,1-c][1,2,4]TRIAZINE COMPOUND” (PRISM PHARMA CO., LTD., priority 2013, published 2016).
Entries after “also recorded” stand apart in the source; their conditions may differ.

Columns and labels:
Type in all cases: physicochemical
[1] = Hygroscopicity evaluation by dynamic water adsorption measuring apparatus; details: 25° C.; for variation in the mass (weight) with increasing relative humidity: 5-95% RH stepwise; for hygroscopicity: 5-95% RH
Procedure: The hygroscopicity of Examples 1, 3 and Comparative Example 1 was evaluated by a dynamic water adsorption measuring apparatus. A sample mounting part of the apparatus was maintained at 25° C., and the relative humidity (RH) was set stepwisely within the range of 5-95% RH. The humidity was controlled by changing the relative flow of 0% RH dry nitrogen and 100% RH humidified nitrogen. The sample weight was confirmed at 2 min intervals by a micro balance, and the humidity was sequentially changed at the time point when the weight shift range for 5 min was below 0.01%.

[2] = Relationship between water content of solvent and crystal form (heptane/ethanol 16:3); details: for crystal form: overnight
Procedure: To a saturated solution of crystal C in a mixed solvent of heptane and ethanol (volume ratio 16:3) were added crystal C (100 mg) and crystal D (100 mg) at a temperature shown in Table 2, water in the amount shown in Table 6 was further added, and the mixture was stood overnight. The water content of the solution after the standing was measured by the Karl Fischer method, and the crystal form of compound 1 was measured by powder X-ray diffraction. The amount of the water added is shown in mass % relative to the mass of the whole solvent.

[3] = Stability evaluation of crystals A, B and C (mixture of equal amounts in supersaturated solution); details: for form of the crystal obtained: equal amounts of crystals A, B and C, one day; for relative stability among crystals A, B and C: room temperature or 40° C.
Procedure: To a supersaturated solution of compound 1 using the solvents shown in Table 8 was added a mixture of equal amounts of crystals A, B and C at room temperature or 40° C., and the form of the crystal obtained one day later was observed using powder X-ray diffraction.

[4] = Stability evaluation of crystal A: slurry in solvents, crystal form by powder X-ray diffraction and DSC; details: room temperature, 2 days
Procedure: Crystal A was added in excess to the solvents described in Table 1 to give a slurry, which was stood at room temperature for 2 days, and the crystal form thereof was measured using powder X-ray diffraction and differential scanning calorimeter (DSC).

[5] = Thermal stability of crystals A and D (oven heating overnight, powder X-ray diffraction); details: for crystal form after heating: oven, overnight
Procedure: Crystals A and D were heated in an oven at 50° C. or 70° C. overnight, and transition of each crystal was confirmed by powder X-ray diffraction.

[6] = single crystal form in heptane/ethanol (16:3) with water content of less than 0.5%, stood overnight

For `C[C@H]1C2N(C(=O)CN(C)N2C(=O)NCc2ccccc2)[C@@H](Cc2ccc(O)cc2)C(=O)N1Cc1cccc2cccnc12` (stereo partly drawn) [Comparative Example 1, (6S,9S)—N-benzyl-6-(4-hydroxybenzyl)-2,9-dimethyl-4,7-dioxo-8-(quinolin-8-ylmethyl)octahydro-1H-pyrazino[2,1-c][1,2,4]triazine-1-carboxamide], the “variation in the mass (weight) with increasing relative humidity” value [1] was “weight increased along with an increase in the humidity”.

For `C[C@H]1C2N(C(=O)CN(C)N2C(=O)NCc2ccccc2)[C@@H](Cc2ccc(O)cc2)C(=O)N1Cc1cccc2cccnc12` (stereo partly drawn) [compound 1, (6S,9S)—N-benzyl-6-(4-hydroxybenzyl)-2,9-dimethyl-4,7-dioxo-8-(quinolin-8-ylmethyl)octahydro-1H-pyrazino[2,1-c][1,2,4]triazine-1-carboxamide], the crystal form ([2]; crystal C + crystal D (100 mg each) in heptane/ethanol 16:3, 5° C., water added 0 mass %, water content 0.32%) was “crystal C”, the crystal form ([2]; crystal C + crystal D (100 mg each) in heptane/ethanol 16:3, 5° C., water added 0.5 mass %, water content 0.93%) was “crystal D” and the crystal form ([2]; crystal C + crystal D (100 mg each) in heptane/ethanol 16:3, 5° C., water added 1.0 mass %, water content 1.56%) was “crystal D”. For the same compound, the crystal form ([2]; crystal C + crystal D (100 mg each) in heptane/ethanol 16:3, 40° C., water added 0 mass %, water content 0.33%) was “crystal C”, the crystal form ([2]; crystal C + crystal D (100 mg each) in heptane/ethanol 16:3, 40° C., water added 0.5 mass %, water content 0.94%) was “crystal D” and the crystal form ([2]; crystal C + crystal D (100 mg each) in heptane/ethanol 16:3, 40° C., water added 1.0 mass %, water content 1.55%) was “crystal D”. For the same compound, the crystal form ([2]; crystal C + crystal D (100 mg each) in heptane/ethanol 16:3, room temperature, water added 0 mass %, water content 0.33%) was “crystal C”, the crystal form ([2]; crystal C + crystal D (100 mg each) in heptane/ethanol 16:3, room temperature, water added 0.5 mass %, water content 0.93%) was “crystal D” and the crystal form ([2]; crystal C + crystal D (100 mg each) in heptane/ethanol 16:3, room temperature, water added 1.0 mass %, water content 1.57%) was “crystal D”. For the same compound, the crystal form obtained ([2]; crystal C + crystal D in heptane/ethanol 16:3, amount of water further added exceeded 2 mass %) was “crystal A was obtained”, the crystal form obtained ([2]; crystal C + crystal D in heptane/ethanol 16:3, water content less than 0.5%) was “crystal C was obtained” and the crystal form obtained ([2]; crystal C + crystal D in heptane/ethanol 16:3, water content not less than 0.5%) was “crystal D was obtained”. The “form of the crystal obtained” value ([3]; MTBE, 40° C.) was “crystal C”, the “form of the crystal obtained” value ([3]; MTBE, room temperature) was “crystal C” and the “form of the crystal obtained” value ([3]; ethyl acetate, 40° C.) was “crystal C”. The “form of the crystal obtained” value ([3]; ethyl acetate, room temperature) was “crystal C”, the “form of the crystal obtained” value ([3]; isopropanol, 40° C.) was “crystal C” and the “form of the crystal obtained” value ([3]; isopropanol, room temperature) was “crystal C”. The “form of the crystal obtained” value ([3]; isopropyl acetate, 40° C.) was “crystal C”, the “form of the crystal obtained” value ([3]; isopropyl acetate, room temperature) was “crystal C” and the “form of the crystal obtained” value ([3]; water, 40° C.) was “crystal A”. For the same compound, the “form of the crystal obtained” value ([3]; water, room temperature) was “crystal A”.

For `C[C@H]1C2N(C(=O)CN(C)N2C(=O)NCc2ccccc2)[C@@H](Cc2ccc(O)cc2)C(=O)N1Cc1cccc2cccnc12` (stereo partly drawn) [crystal A, (6S,9S)—N-benzyl-6-(4-hydroxybenzyl)-2,9-dimethyl-4,7-dioxo-8-(quinolin-8-ylmethyl)octahydro-1H-pyrazino[2,1-c][1,2,4]triazine-1-carboxamide], the hygroscopicity [1] was “low”, the “variation in the mass (weight) with increasing relative humidity” value ([1]; listed as Example 1) was “weight did not increase” and the crystal form ([4]; crystal A slurry in MTBE) was “transition did not occur; also recorded: crystal A”. For the same compound, the crystal form ([4]; crystal A slurry in acetonitrile) was “transition did not occur; also recorded: crystal A”, the crystal form ([4]; crystal A slurry in ethanol) was “transition to crystal C occurred gradually” and the crystal form ([4]; crystal A slurry in ethyl acetate) was “transition to crystal C occurred gradually”. For the same compound, the crystal form ([4]; crystal A slurry in isopropanol) was “transition to crystal C occurred gradually”, the crystal form ([4]; crystal A slurry in isopropyl acetate) was “transition did not occur; also recorded: crystal A” and the crystal form ([4]; crystal A slurry in methanol) was “transition to crystal B occurred”. For the same compound, the crystal form ([4]; crystal A slurry in methylethyl ketone) was “transition did not occur; also recorded: crystal A”, the crystal form ([4]; crystal A slurry in tetrahydrofuran) was “transition to an amorphous form occurred” and the crystal form ([4]; crystal A slurry in water) was “transition did not occur; also recorded: crystal A”. The “relative stability to heat” value ([5]; crystal A versus crystal D, 50° C. overnight) was “more stable to heat than crystal D”, the “crystal form after heating” value ([5]; 50° C.) was “did not show transition; also recorded: not transited; also recorded: crystal A” and the “crystal form after heating” value ([5]; 70° C.) was “transits to an amorphous form”. For the same compound, the “relative stability among crystals A, B and C” value ([3]; water) was “most stable in water”.

For `C[C@H]1C2N(C(=O)CN(C)N2C(=O)NCc2ccccc2)[C@@H](Cc2ccc(O)cc2)C(=O)N1Cc1cccc2cccnc12` (stereo partly drawn) [crystal C, (6S,9S)—N-benzyl-6-(4-hydroxybenzyl)-2,9-dimethyl-4,7-dioxo-8-(quinolin-8-ylmethyl)octahydro-1H-pyrazino[2,1-c][1,2,4]triazine-1-carboxamide], the hygroscopicity [1] was “low”, the “variation in the mass (weight) with increasing relative humidity” value ([1]; listed as Example 3) was “weight did not increase” and the “transition of crystal form” value [2, 6] was “transition of crystal form did not occur; also recorded: not transited”. The “transition of crystal form” value ([2]; single crystal form in heptane/ethanol (16:3) with water content of not less than 0.5%, left overnight) was “transited to crystal D” and the “relative stability among crystals A, B and C” value ([3]; isopropanol, isopropyl acetate, MTBE or ethyl acetate) was “most stable in other nonaqueous solvents”.

In the case of `C[C@H]1C2N(C(=O)CN(C)N2C(=O)NCc2ccccc2)[C@@H](Cc2ccc(O)cc2)C(=O)N1Cc1cccc2cccnc12` (stereo partly drawn) [crystal D, (6S,9S)—N-benzyl-6-(4-hydroxybenzyl)-2,9-dimethyl-4,7-dioxo-8-(quinolin-8-ylmethyl)octahydro-1H-pyrazino[2,1-c][1,2,4]triazine-1-carboxamide], the “transition of crystal form” value [2, 6] is reported as “transition to crystal C occurred; also recorded: transits to crystal C”, the “crystal form after heating” value ([5]; 50° C.) is reported as “A part of crystal D transits to an amorphous form; also recorded: mixture of crystal D” and the “crystal form after heating” value ([5]; 70° C.) is reported as “transits to an amorphous form”.
